{"source": "patent US20140271680A1", "about": "“METHODS AND PHARMACEUTICAL COMPOSITIONS FOR TREATMENT OF PULMONARY HYPERTENSION” (UNIVERSITE PARIS-EST CRETEIL VAL DE MARNE, priority 2011, published 2014)", "key": {"[1]": {"tested_on": "human pulmonary-artery smooth muscle cells (PA-SMCs)", "assay": "CCL5-stimulated proliferation of human pulmonary-artery smooth muscle cells (MTT assay)", "format": "cell-based", "details": "48 h with CCL5 and Maraviroc, FIG. 4", "experimental": "The effects of Maraviroc on cell proliferation was investigated in primary cultures of human pulmonary-artery smooth muscle cells (PA-SMCs) collected from lung tissue samples of patients undergoing lung resection surgery. Cell proliferation was assessed by using the tetrazolium salt (MTT) assay (Sigma, Lyon, France) during conditions of stimulation with the CCR5 ligand CCL5. Human PA-SMCs were seeded onto 24-well for 48 h. PA-SMCs were synchronized for 48 h in media without serum prior cell proliferation stimulation in presence of CCL5 or CCL5 and Maraviroc. 48 hours after, MTT (100 μg/mL) was added and incubated for 4 h. The media was removed and crystals formed were dissolved in […] of dimethylsulfoxide (DMSO, Sigma) and the mixture was shaken for a few minutes to achieve complete dissolution. Aliquots (200 μL) of the resulting solutions were transferred to 96-well plates and absorbance was recorded at 520 nm using the Microplate Spectrophotometer System."}, "wild-type (WT) mice": {"tested_on": "wild-type (WT) mice", "assay": "hypoxic pulmonary hypertension in wild-type mice (chronic hypoxia 9% O2)", "format": "in vivo", "details": "Maraviroc 200 mg/kg/day"}, "[2]": {"tested_on": "CCR5 knock-in (KICCR5) mice", "assay": "hypoxic pulmonary hypertension in CCR5 knock-in mice (chronic hypoxia 9% O2)", "format": "in vivo", "details": "Maraviroc 200 mg/kg/day", "description": "To assess the inhibitory effects of the CCR5 antagonist Maraviroc on development of pulmonary hypertension in mice, the inventors used CCR5 knock-in mice in which the murine CCR5 gene was replaced by the human CCR5 gene. CCR5 knock-in mice were used in these experiments because Maraviroc binds to the human CCR5 but not to the murine CCR5 protein.\nMale mice (12 months old), were exposed to chronic hypoxia (9% O2) in a ventilated chamber (Biospherix, New York, N.Y.). Mice were anesthetized with ketamine (60 mg/Kg) and xylazine (10 mg/Kg) intraperitoneally. A 26-gauge needle connected to a pressure transducer was inserted into the right ventricle, and right ventricular systolic pressure (RVSP) was recorded. After the assessment of hemodynamic parameters, all mice were sacrificed by cardiac puncture and exsanguinations. The heart was dissected out and weighed for calculation of the Fulton index (ratio of right ventricular free wall weight over the sum of the septum plus left ventricular free wall weights: RV/LV+S). The left lung was inflated and fixed with formalin buffer for assessments of pulmonary vessel muscularization and of PA-SMC proliferation using Ki67 immunostaining"}}, "data": [{"smiles": "Cc1nnc(C(C)C)n1[C@@H]1C[C@H]2CC[C@@H](C1)N2CC[C@H](NC(=O)C1CCC(F)(F)CC1)c1ccccc1", "note": "[Maraviroc, 4,4-difluoro-N-{(1S)-3-[3-(3-isopropyl-5-methyl-4H-1,2,4-triazol-4-yl)-8-azabicyclo[3.2.1]oct-8-yl]-1-phenylpropyl}cyclohexanecarboxamide]", "values": [{"measurement": "Proliferation of human pulmonary artery smooth muscle cells stimulated by the CCR5 ligand CCL5", "setting": "[1]", "result": "significantly reduced"}, {"measurement": "Right ventricular systolic pressure (RVSP)", "setting": "wild-type (WT) mice; FIG. 3A", "result": "not in WT mice"}, {"measurement": "proliferative cells detected by ki67 immunostaining", "setting": "wild-type (WT) mice; FIG. 3D", "result": "not in WT mice"}, {"measurement": "Right ventricular systolic pressure (RVSP)", "setting": "[2]; FIG. 3A", "result": "reduction"}, {"measurement": "Fulton index", "setting": "[2]; FIG. 3B", "result": "reduction"}, {"measurement": "% of muscularized vessels", "setting": "[2]; FIG. 3C", "result": "reduction"}, {"measurement": "proliferative cells detected by ki67 immunostaining", "setting": "[2]; FIG. 3D", "result": "reduction"}]}]}
